For orientation: inhibition means the change of the read-out against control, counted positive when it falls. Low readings indicate a response near the control, high ones a response far below the control.

SMILES strings stand for the structures.

The values that follow come from US20080312301A1, “Substituted N-Benzo[D]Isoxazol-3-Yl-Amine Compounds as Inhibitors of Mglur5, Serotonin (5-Ht) and Noradrenaline Receptors, and Uses Thereof” (Gruenenthal GmbH, priority 2005, published 2008).

In this test the target is T1, mGluR5 receptor (Sus scrofa, UniProt I3LUI7).
T1 construct: 450 μg of protein from brain homogenate are incubated with 5 nM^3[H]-MPEP; from tissue; host or cells: pig brain hemispheres without medulla, cerebellum and pons
T1 sequence (I3LUI7 19-1212): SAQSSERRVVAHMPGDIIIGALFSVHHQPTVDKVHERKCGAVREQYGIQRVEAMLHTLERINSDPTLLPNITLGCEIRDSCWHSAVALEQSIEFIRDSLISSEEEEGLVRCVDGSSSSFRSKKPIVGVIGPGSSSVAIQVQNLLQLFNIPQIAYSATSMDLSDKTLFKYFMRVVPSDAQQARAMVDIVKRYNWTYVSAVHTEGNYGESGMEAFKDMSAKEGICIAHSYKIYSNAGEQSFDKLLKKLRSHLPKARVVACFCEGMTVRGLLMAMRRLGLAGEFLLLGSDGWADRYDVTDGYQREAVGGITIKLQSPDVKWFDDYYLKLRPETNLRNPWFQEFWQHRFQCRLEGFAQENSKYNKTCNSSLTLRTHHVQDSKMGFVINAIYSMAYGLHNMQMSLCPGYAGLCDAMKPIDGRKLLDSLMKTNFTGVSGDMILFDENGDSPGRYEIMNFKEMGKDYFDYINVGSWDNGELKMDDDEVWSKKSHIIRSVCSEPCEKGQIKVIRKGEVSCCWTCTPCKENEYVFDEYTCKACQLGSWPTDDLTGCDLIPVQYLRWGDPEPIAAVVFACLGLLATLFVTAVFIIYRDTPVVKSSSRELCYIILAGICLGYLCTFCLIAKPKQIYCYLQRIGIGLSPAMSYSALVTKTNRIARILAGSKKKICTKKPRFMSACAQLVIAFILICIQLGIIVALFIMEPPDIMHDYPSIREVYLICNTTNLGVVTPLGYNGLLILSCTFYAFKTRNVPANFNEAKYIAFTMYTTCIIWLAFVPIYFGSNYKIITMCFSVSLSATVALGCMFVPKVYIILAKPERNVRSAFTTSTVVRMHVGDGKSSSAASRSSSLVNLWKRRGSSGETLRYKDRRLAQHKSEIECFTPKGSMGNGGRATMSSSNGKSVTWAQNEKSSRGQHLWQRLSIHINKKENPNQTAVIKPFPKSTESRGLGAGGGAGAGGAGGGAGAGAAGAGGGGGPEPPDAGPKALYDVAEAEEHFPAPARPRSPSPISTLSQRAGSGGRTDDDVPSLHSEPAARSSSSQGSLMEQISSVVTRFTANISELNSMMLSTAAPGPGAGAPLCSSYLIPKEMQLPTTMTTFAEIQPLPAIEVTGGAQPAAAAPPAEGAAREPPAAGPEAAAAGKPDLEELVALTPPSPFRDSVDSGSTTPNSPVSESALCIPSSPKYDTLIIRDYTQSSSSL
The test can be described thus: Affinity for the mGluR5 receptor: displacement of 3[H]-MPEP binding in pig brain homogenate. The settings on record: 10 μM compound, 5 nM 3[H]-MPEP. How it is done: II. Method for Determining the Affinity for the mGluR5 Receptor
In each case 450 μg of protein from brain homogenate are incubated with 5 nM^3[H]-MPEP (Tocris, order No. R1212) (MPEP=2-methyl-6-[…]) and the compounds to be investigated (10 μM in the assay) in buffer (as above) in 250 μl incubation mixtures in 96-well microtiter plates at room temperature for 60 min.
The filter plates were then dried at 55° C. for 60 min.

For the compound `Cc1ccc(COc2cccc3onc(NC(=O)c4cccc([N+](=O)[O-])c4)c23)cc1` [Example 167, N-[4-(4-methylbenzyloxy)benzo[d]isoxazol-3-yl]-3-nitrobenzamide], the inhibition at 10 µM was found to be 39.7%.

As for `COc1ccccc1C(=O)Nc1noc2c(F)cccc12` [Example 98, N-(7-fluorobenzo[d]isoxazol-3-yl)-2-methoxybenzamide], the inhibition at 10 µM is 32%.

`O=C(Nc1noc2cc(Cl)ccc12)c1ccc(F)cc1C(F)(F)F` [Example 110, N-(6-chlorobenzo[d]isoxazol-3-yl)-4-fluoro-2-trifluoromethylbenzamide]: at 10 µM the inhibition was 36%.

With `COc1cccc2onc(NC(=O)c3ccccc3C)c12` [Example 156, N-(4-methoxybenzo[d]isoxazol-3-yl)-2-methylbenzamide], at 10 µM the inhibition was 33.8%.

For the compound `Cc1cc(C(=O)Nc2noc3cccc(OCC(F)(F)F)c23)c(C)o1` [Example 166, 2,5-dimethylfuran-3-[4-(2,2,2-trifluoroethoxy)benzo[d]isoxazol-3-yl]carboxamide], the “mGluR5 receptor inhibition of the 3[H]-MPEP binding in % (10 μM)” value (shortened to “mGluR5 receptor inhibition … in % (10 μM)”) is 32.39%.

`CC(C)(C)CC(=O)Nc1noc2cccc(OCC(F)(F)F)c12` [Example 164, 3,3-dimethyl-N-[4-(2,2,2-trifluoroethoxy)benzo[d]isoxazol-3-yl]butyramide] returned an inhibition at 10 µM of 33.4%.

Take `O=C(Nc1noc2ccc(F)cc12)c1ccc2ccccc2c1` [Example 106, naphthalene-2-(5-fluorobenzo[d]isoxazol-3-yl)carboxamide]: the “mGluR5 receptor inhibition … in % (10 μM)” value amounted to 33.72%.

As for `O=C(Nc1noc2c(F)cccc12)c1ccccc1Cl` [Example 93, 2-chloro-N-(7-fluorobenzo[d]isoxazol-3-yl)benzamide], the inhibition at 10 µM came out at 35.4%.

`CCC(C)C(=O)Nc1noc2cc(Cl)ccc12` (stereo not drawn) [Example 113, N-(6-chlorobenzo[d]isoxazol-3-yl)-2-methylbutyramide] came in with an inhibition at 10 µM of 49.2%.

For the compound `O=C(Nc1noc2cc(Br)ccc12)c1ccc(Cl)c(Cl)c1` [Example 115, N-(6-bromobenzo[d]isoxazol-3-yl)-3,4-dichlorobenzamide], the inhibition at 10 µM stood at 35.8%.

`O=C(Nc1noc2ccc(Br)cc12)c1cc(F)ccc1C(F)(F)F` [Example 141, N-(5-bromobenzo[d]isoxazol-3-yl)-5-fluoro-2-trifluoromethylbenzamide] registered an inhibition at 10 µM of 33.1%.

Regarding `O=C(Nc1noc2cc(F)ccc12)C12CC3CC(CC(C3)C1)C2` [Example 102, adamantane-1-(6-fluorobenzo[d]isoxazol-3-yl)carboxamide], the “mGluR5 receptor inhibition … in % (10 μM)” value came out at 52.11%.

In turn, `CCCCC(CC)C(=O)Nc1noc2cccc(OC)c12` (stereo not drawn) [Example 159, N-(4-methoxybenzo[d]isoxazol-3-yl)-2-ethylhexanamide] had an inhibition at 10 µM of 43.2%.

Take `Nc1c(F)c(F)c2c(NC(=O)c3c(F)cccc3F)noc2c1F` [Example 176, N-(6-amino-4,5,7-trifluorobenzo[d]isoxazol-3-yl)-2,6-difluorobenzamide]: the inhibition at 10 µM stood at 36.1%.

`O=C(Nc1noc2ccc(F)cc12)c1ccc(F)cc1F` [Example 105, 2,4-difluoro-N-(5-fluorobenzo[d]isoxazol-3-yl)benzamide]: the inhibition at 10 µM is 53.8%.

On to `O=C(Nc1noc2ccc(Br)cc12)c1ccccc1Br` [Example 140, 2-bromo-N-(5-bromobenzo[d]isoxazol-3-yl)benzamide], for which the inhibition at 10 µM amounted to 38.4%.

For the compound `O=C(Nc1noc2ccc(F)cc12)c1ccc(F)cc1F` [Example 131, 2,4-difluoro-N-(5-fluorobenzo[d]isoxazol-3-yl)benzamide], the “mGluR5 receptor inhibition … in % (10 μM)” value is on record as 42.52%.

`O=C(Nc1noc2cc(F)ccc12)c1cc(F)cc(F)c1` [Example 100, 3,5-difluoro-N-(6-fluorobenzo[d]isoxazol-3-yl)benzamide] showed an inhibition at 10 µM of 33.3%.

`Cc1cc(C(=O)Nc2noc3ccc(F)cc23)c(C)o1` [Example 132, 2,5-dimethylfuran-3-(5-fluorobenzo[d]isoxazol-3-yl)carboxamide]: the “mGluR5 receptor inhibition … in % (10 μM)” value was found to be 36.88%.

Turning to `O=C(Nc1noc2ccc(Br)cc12)c1cccc(F)c1F` [Example 133, N-(5-bromobenzo[d]isoxazol-3-yl)-2,3-difluorobenzamide], the inhibition at 10 µM was found to be 34.6%.

The compound `Cc1ccc2onc(NC(=O)c3ccc(F)cc3F)c2c1` [Example 127, 2,4-difluoro-N-(5-methylbenzo[d]isoxazol-3-yl)benzamide] displayed an inhibition at 10 µM of 43.2%.

`CN(C)c1cccc2onc(NC(=O)c3ccc(Cl)c(Cl)c3)c12` [Example 170, 3,4-dichloro-N-(4-dimethylaminobenzo[d]isoxazol-3-yl)benzamide] registered an inhibition at 10 µM of 38%.

Consider `CCCc1ccc(C(=O)Nc2noc3cccc(OCc4ccc(C)cc4)c23)cc1` [Example 168, N-[4-(4-methylbenzyloxy)benzo[d]isoxazol-3-yl]-4-propylbenzamide], for which the inhibition at 10 µM came to 32.2%.

For the compound `Cc1ccc2onc(NC(=O)c3cccc(F)c3F)c2c1` [Example 126, 2,3-difluoro-N-(5-methylbenzo[d]isoxazol-3-yl)benzamide], the inhibition at 10 µM turned out to be 39.5%.

The compound `CCCC(C)C(=O)Nc1noc2cccc(OC)c12` (stereo not drawn) [Example 161, N-(4-methoxybenzo[d]isoxazol-3-yl)-2-methylpentanamide] showed an inhibition at 10 µM of 38.5%.

As to `CC(C)(C)CC(=O)Nc1noc2cc(Br)ccc12` [Example 117, N-(6-bromobenzo[d]isoxazol-3-yl)-3,3-dimethylbutyramide], the inhibition at 10 µM was found to be 30.8%.

With `CN(C)c1cccc2onc(NC(=O)C34CC5CC(CC(C5)C3)C4)c12` [Example 172, adamantane-1-(4-dimethylaminobenzo[d]isoxazol-3-yl)carboxamide], the “mGluR5 receptor inhibition … in % (10 μM)” value is 51.40%.

For the compound `Cc1ccc2onc(NC(=O)c3ccc(F)cc3)c2c1` [Example 121, 4-fluoro-N-(5-methylbenzo[d]isoxazol-3-yl)benzamide], the inhibition at 10 µM was determined as 32.2%.

Compound `Cc1ccccc1C(=O)Nc1noc2c(F)cccc12` [Example 99, N-(7-fluorobenzo[d]isoxazol-3-yl)-2-methylbenzamide] registered an inhibition at 10 µM of 43%.

In turn, `O=C(Nc1noc2ccc(Br)cc12)c1c(F)cccc1F` [Example 136, N-(5-bromobenzo[d]isoxazol-3-yl)-2,6-difluorobenzamide] yielded an inhibition at 10 µM of 40.8%.

As for `O=C(Nc1noc2cccc(F)c12)c1ccccc1` [Example 147, N-(4-fluorobenzo[d]isoxazol-3-yl)benzamide], 10 µM produced 31.4% inhibition.

With `O=C(Nc1noc2cccc(F)c12)c1ccccc1F` [Example 149, 2-fluoro-N-(4-fluorobenzo[d]isoxazol-3-yl)benzamide], 10 µM produced 32.5% inhibition.

In the case of `O=C(Nc1noc2ccccc12)c1csc2ccccc12` [Example 92, benzo[b]thiophene-3-benzo[d]isoxazol-3-ylcarboxamide], the “mGluR5 receptor inhibition … in % (10 μM)” value is 55.98%.

Compound `Cc1cccc(C(=O)Nc2noc3cccc(Cl)c23)c1` [Example 153, N-(4-chlorobenzo[d]isoxazol-3-yl)-3-methylbenzamide] had an inhibition at 10 µM of 63.8%.

Take `CC(C)(C)CC(=O)Nc1noc2cccc(Cl)c12` [Example 155, N-(4-chlorobenzo[d]isoxazol-3-yl)-3,3-dimethylbutyramide]: at 10 µM the inhibition was 52.4%.

With `O=C(Nc1noc2cc(Cl)ccc12)c1cc(F)c(Cl)cc1Cl` [Example 111, 2,4-dichloro-N-(6-chlorobenzo[d]isoxazol-3-yl)-5-fluorobenzamide], the inhibition at 10 µM amounted to 43%.

On to `O=C(Nc1noc2cccc(F)c12)C12CC3CC(CC(C3)C1)C2` [Example 150, adamantane-1-(4-fluorobenzo[d]isoxazol-3-yl)carboxamide], for which the “mGluR5 receptor inhibition … in % (10 μM)” value was found to be 53.18%.

Regarding `CCC(C)C(=O)Nc1noc2ccc(Br)cc12` (stereo not drawn) [Example 135, N-(5-bromobenzo[d]isoxazol-3-yl)-2-methyl butyramide], the “mGluR5 receptor inhibition … in % (10 μM)” value was 40.00%.

Turning to `Cc1ccc2onc(NC(=O)c3ccccc3Cl)c2c1` [Example 120, 2-chloro-N-(5-methylbenzo[d]isoxazol-3-yl)benzamide], the inhibition at 10 µM is 47.9%.
